Common to all, as to assay: relative viability (nuclei count vs DMSO), 5 days (fraction); higher = more cells survive
Compound in assay [1]: C1/C(=C\C2=CC=CS2)/C(=O)/C(=C/C3=CC=CS3)/C1 + C[C@]1(O)C[C@@H](c2nc(-c3ccc4ccc(-c5ccccc5)nc4c3)c3c(N)nccn32)C1 [Linsitinib] (partner 1 µM)
Summed up: (§1)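 Lung cancer cell lines, seeded in 1536-well plates, were treated the following day by pin tool with a single drug or with five library-drug doses (not always all listed) in √10 steps on top of a fixed anchor-drug dose. Cells were fixed and nuclei stained in one step after 5 days, and nuclei were counted. Relative viability is the nuclei count for treated wells divided by that for vehicle wells, reported as medians of duplicate plates.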

Compound in assay [2]: C1/C(=C\C2=CC=CS2)/C(=O)/C(=C/C3=CC=CS3)/C1 + CC(C)C[C@H](NC(=O)[C@H](Cc1ccccc1)NC(=O)c1cnccn1)B(O)O [Bortezomib] (partner 0.002 µM)
The method, boiled down:
as §1

Compound in the assay “TPCA-1 + Pemetrexed”: C1=CC(=CC=C1C2=CC(=C(S2)NC(=O)N)C(=O)N)F [TPCA-1] + Nc1nc2[nH]cc(CCc3ccc(C(=O)N[C@@H](CCC(=O)O)C(=O)O)cc3)c2c(=O)[nH]1 [Pemetrexed] (partner 0.2 µM)
Summed up: as §1

Compound in the assay “Lestaurtinib + OSI-027”: C[C@]12O[C@H](C[C@]1(O)CO)n1c3ccccc3c3c4c(c5c6ccccc6n2c5c31)CNC4=O [Lestaurtinib] + COc1cccc2cc(-c3nc([C@H]4CC[C@H](C(=O)O)CC4)n4ncnc(N)c34)[nH]c12 [OSI-027] (partner 0.5 µM)
The method, boiled down: as §1

This passage reports relative viability results from the supplement of paper PMC10307832.

For the cell line IA-LM, the relative viability in assay [1] (first compound 0.2 µM) was determined as 0.623; in assay [1] (first compound 0.6325 µM), 0.895; in assay [1] (first compound 2 µM) it was 0.623; in assay [1] (first compound 6.325 µM), 0.616; in assay [1] (first compound 20 µM), 0.523; in assay [2] (first compound 0.2 µM) it was 0.809. The relative viability worked out at 0.909 in assay [2] (first compound 0.6325 µM), 0.886 in assay [2] (first compound 2 µM), 0.753 in assay [2] (first compound 6.325 µM) and 0.665 in assay [2] (first compound 20 µM).
For the cell line LC-2-ad, the relative viability in the assay with TPCA-1 + Pemetrexed (first compound 0.04 µM) stood at 0.262; with TPCA-1 + Pemetrexed (first compound 0.1265 µM), 0.299; in the assay with TPCA-1 + Pemetrexed (first compound 0.4 µM), 0.27; with TPCA-1 + Pemetrexed (first compound 1.265 µM), 0.283; with TPCA-1 + Pemetrexed (first compound 4 µM) it was 0.206; in assay [1] (first compound 0.2 µM), 0.832. Besides, the relative viability in assay [1] (first compound 0.6325 µM) turned out to be 0.838; in assay [1] (first compound 2 µM), 0.875; in assay [1] (first compound 6.325 µM) it was 0.69; in assay [1] (first compound 20 µM), 0.847; in assay [2] (first compound 0.2 µM), 1.03; in assay [2] (first compound 0.6325 µM), 1.05. Besides, the relative viability in assay [2] (first compound 2 µM) is 1.02; in assay [2] (first compound 6.325 µM), 0.871; in assay [2] (first compound 20 µM), 1.02; in the assay with Lestaurtinib + OSI-027 (first compound 0.005 µM), 0.892; with Lestaurtinib + OSI-027 (first compound 0.01581 µM) it was 0.783; with Lestaurtinib + OSI-027 (first compound 0.05 µM), 0.506. Also, the values for the relative viability with Lestaurtinib + OSI-027 (first compound 0.1581 µM) and in the assay with Lestaurtinib + OSI-027 (first compound 0.5 µM) were 0.483 and 0.304, respectively.
For LCLC-97TM1, the relative viability with TPCA-1 + Pemetrexed (first compound 0.04 µM) worked out at 0.17; in the assay with TPCA-1 + Pemetrexed (first compound 0.1265 µM), 0.186; in the assay with TPCA-1 + Pemetrexed (first compound 0.4 µM), 0.163; with TPCA-1 + Pemetrexed (first compound 1.265 µM), 0.153; with TPCA-1 + Pemetrexed (first compound 4 µM), 0.154; in assay [1] (first compound 0.2 µM) it was 0.183. In addition, the relative viability in assay [1] (first compound 0.6325 µM) is 0.169; in assay [1] (first compound 2 µM), 0.187; in assay [1] (first compound 6.325 µM) it was 0.158; in assay [1] (first compound 20 µM), 0.197; in assay [2] (first compound 0.2 µM), 0.777; in assay [2] (first compound 0.6325 µM) it was 0.501. In addition, the relative viability was found to be 0.737 in assay [2] (first compound 2 µM); 0.43 in assay [2] (first compound 6.325 µM); 0.565 in assay [2] (first compound 20 µM); 0.547 with Lestaurtinib + OSI-027 (first compound 0.005 µM); 0.42 with Lestaurtinib + OSI-027 (first compound 0.01581 µM); 0.125 with Lestaurtinib + OSI-027 (first compound 0.05 µM). Further, the relative viability with Lestaurtinib + OSI-027 (first compound 0.1581 µM) is 0.215; with Lestaurtinib + OSI-027 (first compound 0.5 µM) it was 0.182.
LK-2: the relative viability in the assay with TPCA-1 + Pemetrexed (first compound 0.04 µM) worked out at 0.268; with TPCA-1 + Pemetrexed (first compound 0.4 µM) it was 0.253; in the assay with TPCA-1 + Pemetrexed (first compound 1.265 µM), 0.232; in the assay with TPCA-1 + Pemetrexed (first compound 4 µM), 0.141; in assay [1] (first compound 0.2 µM), 0.641; in assay [1] (first compound 0.6325 µM), 0.857. Besides, the relative viability in assay [1] (first compound 2 µM) was determined as 0.633; in assay [1] (first compound 6.325 µM) it was 0.583; in assay [1] (first compound 20 µM), 0.59; with Lestaurtinib + OSI-027 (first compound 0.005 µM), 0.158; with Lestaurtinib + OSI-027 (first compound 0.01581 µM), 0.224; in the assay with Lestaurtinib + OSI-027 (first compound 0.05 µM), 0.176. For the same cell line, the relative viability in the assay with Lestaurtinib + OSI-027 (first compound 0.1581 µM) was 0.185; in the assay with Lestaurtinib + OSI-027 (first compound 0.5 µM), 0.173.
For NCI-H358, the relative viability with TPCA-1 + Pemetrexed (first compound 0.04 µM) stood at 0.187; with TPCA-1 + Pemetrexed (first compound 0.1265 µM), 0.167; in the assay with TPCA-1 + Pemetrexed (first compound 0.4 µM), 0.162; in the assay with TPCA-1 + Pemetrexed (first compound 1.265 µM) it was 0.156; with TPCA-1 + Pemetrexed (first compound 4 µM) it was 0.167; in assay [1] (first compound 0.2 µM) it was 0.887. Also, the relative viability in assay [1] (first compound 0.6325 µM) was 0.757; in assay [1] (first compound 2 µM), 0.821; in assay [1] (first compound 6.325 µM), 0.644; in assay [1] (first compound 20 µM), 0.809; in the assay with Lestaurtinib + OSI-027 (first compound 0.005 µM), 0.658; with Lestaurtinib + OSI-027 (first compound 0.01581 µM), 0.629. Besides, the results for the relative viability in the assay with Lestaurtinib + OSI-027 (first compound 0.05 µM), with Lestaurtinib + OSI-027 (first compound 0.1581 µM) and with Lestaurtinib + OSI-027 (first compound 0.5 µM) were 0.285, 0.232 and 0.0986, respectively.
